Reference: patent publication US20160046618A1, “Cyclopropyl Fused Thiazin-2-Amine Compounds as Beta-Secretase Inhibitors and Methods of Use” (AMGEN INC., priority 2014, published 2016)

Legend:
human recombinant BACE1 = human recombinant BACE1 (Homo sapiens (Human), UniProt P56817); experiment: In vitro enzymatic BACE1 FRET assay; format: biochemical; conditions: read-out: IC50 IP (μM) BACE1 enzyme
Method in brief: (§1)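 Protease purified by Ni-NTA chromatography; start with FRET substrate (50 nM); incubate 1 h; quench with Tris to neutral pH; read fluorescence ex 488 / em 590 nm.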

human recombinant BACE2 = human recombinant BACE2 (Homo sapiens (Human), UniProt Q9Y5Z0); experiment: In vitro enzymatic BACE2 FRET assay; format: biochemical; conditions: read-out: IC50 IP (μM) BACE2 enzyme
Method in brief: as §1

[1] = test system: Aβ40 in conditioned medium of cells stably expressing Amyloid Precursor Protein (APP); experiment: In vitro BACE-1 cell-based assay (Aβ40 sandwich ELISA); conditions: read-out: IC50 IP (μM) BACE1 cell
Method in brief: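 APP-expressing cells treated 24 h at 37 °C with compound in 10-point dose response (top 100 μM or 10 μM, 0.1% DMSO final). Secreted Aβ40 in conditioned medium quantified by sandwich ELISA (pAb40 capture, biotinylated 6E10 detection, time-resolved europium fluorescence); IC50 from percent inhibition versus concentration.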

Recombinant Cat D = Recombinant Cat D (Homo sapiens (Human), UniProt P07339); experiment: In vitro enzymatic Cathepsin D (Cat D) FRET assay; format: biochemical; conditions: read-out: IC50 IP (μM) CatD
Method in brief: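 Fluorescence at 500 nm excitation and 580 nm emission reports cleavage of a quenched fluorophore–quencher peptide (20 nM) by CHO-expressed Cat D. Reactions ran one hour in 0.05 M citrate pH 3.5, 5 mM CHAPS, 10% DMSO final before a Tris stop raised pH to neutrality.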

Sequence of human recombinant BACE1 (P56817 46-501): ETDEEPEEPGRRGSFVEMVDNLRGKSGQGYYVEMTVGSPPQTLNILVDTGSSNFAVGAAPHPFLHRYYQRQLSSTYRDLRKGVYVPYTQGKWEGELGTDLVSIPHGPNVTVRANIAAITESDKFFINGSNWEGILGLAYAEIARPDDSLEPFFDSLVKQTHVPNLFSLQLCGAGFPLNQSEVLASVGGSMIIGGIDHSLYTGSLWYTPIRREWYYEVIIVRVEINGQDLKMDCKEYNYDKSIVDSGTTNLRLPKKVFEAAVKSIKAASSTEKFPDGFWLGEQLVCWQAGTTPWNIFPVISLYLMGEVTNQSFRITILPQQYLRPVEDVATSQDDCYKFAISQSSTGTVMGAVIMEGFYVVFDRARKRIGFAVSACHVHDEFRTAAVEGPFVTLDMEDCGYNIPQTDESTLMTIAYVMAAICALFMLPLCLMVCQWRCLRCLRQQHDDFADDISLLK
Sequence of Recombinant Cat D (P07339 65-412): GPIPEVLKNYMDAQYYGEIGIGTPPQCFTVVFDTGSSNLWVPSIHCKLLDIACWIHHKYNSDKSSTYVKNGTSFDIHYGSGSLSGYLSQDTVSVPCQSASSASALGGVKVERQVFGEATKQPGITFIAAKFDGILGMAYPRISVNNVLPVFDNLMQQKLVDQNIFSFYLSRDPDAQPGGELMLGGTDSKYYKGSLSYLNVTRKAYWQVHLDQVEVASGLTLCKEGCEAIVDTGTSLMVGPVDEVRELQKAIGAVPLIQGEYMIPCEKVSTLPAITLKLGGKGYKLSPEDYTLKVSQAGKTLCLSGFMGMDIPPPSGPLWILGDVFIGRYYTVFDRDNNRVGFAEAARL
Sequence of human recombinant BACE2 (Q9Y5Z0 63-518): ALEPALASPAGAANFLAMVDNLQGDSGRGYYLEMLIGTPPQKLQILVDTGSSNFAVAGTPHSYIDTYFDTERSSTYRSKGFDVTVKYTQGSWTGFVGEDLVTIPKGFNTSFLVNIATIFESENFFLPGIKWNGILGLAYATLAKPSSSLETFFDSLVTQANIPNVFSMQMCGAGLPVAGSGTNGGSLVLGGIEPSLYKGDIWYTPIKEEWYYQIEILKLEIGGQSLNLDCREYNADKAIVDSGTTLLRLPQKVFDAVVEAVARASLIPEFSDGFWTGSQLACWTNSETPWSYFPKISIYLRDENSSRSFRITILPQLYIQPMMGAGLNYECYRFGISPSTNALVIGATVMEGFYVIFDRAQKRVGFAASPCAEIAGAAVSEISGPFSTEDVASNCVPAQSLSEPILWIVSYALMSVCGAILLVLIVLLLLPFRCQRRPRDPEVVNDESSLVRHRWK

Row | IC50 (human recombinant BACE1) [µM] | IC50 (human recombinant BACE2) [µM] | IC50 [1] [µM] | IC50 (Recombinant Cat D) [µM] | SMILES
1 | 0.0219 | 0.0108 | 0.0145 | 1780 | COC[C@]12C[C@H]1[C@@](C)(c1cc(Nc3ncnc4cc(Cl)cnc34)cnc1F)N=C(N)S2 [Example 844, (1S,5S,6S)-5-(5-((7-chloropyrido[3,2-d]pyrimidin-4-yl)amino)-2-fluoropyridin-3-yl)-1-(methoxymethyl)-5-methyl-2-thia-4-azabicyclo[4.1.0]hept-3-en-3-amine]
2 | 0.0026 | 0.0257 | 0.00473 | 1710 | C#CCOc1cnc(C(=O)Nc2cnc(F)c([C@@]3(C)N=C(N)S[C@@]4(COC)C[C@H]43)c2)c(C)n1 [Example 845, N-(5-((1S,5S,6S)-3-amino-1-(methoxymethyl)-5-methyl-2-thia-4-azabicyclo[4.1.0]hept-3-en-5-yl)-6-fluoro-3-pyridinyl)-3-methyl-5-(2-propyn-1-yloxy)-2-pyrazinecarboxamide]
3 | 0.0282 | 0.0494 | 0.0111 | > 400 | COC[C@]12C[C@H]1[C@@](C)(c1cc(Nc3ncnc4cc(C#N)cnc34)cnc1F)N=C(N)S2 [Example 846, 4-((5-((1S,5S,6S)-3-amino-1-(methoxymethyl)-5-methyl-2-thia-4-azabicyclo[4.1.0]hept-3-en-5-yl)-6-fluoro-3-pyridinyl)amino)pyrido[3,2-d]pyrimidine-7-carbonitrile]
4 | 0.0113 | 0.00955 | 0.00675 | 1910 | COC[C@]12C[C@H]1[C@@](C)(c1cc(Nc3nccc4cc(C#N)cnc34)cnc1F)N=C(N)S2 [Example 847, 8-((5-((1S,5S,6S)-3-amino-1-(methoxymethyl)-5-methyl-2-thia-4-azabicyclo[4.1.0]hept-3-en-5-yl)-6-fluoro-3-pyridinyl)amino)-1,7-naphthyridine-3-carbonitrile]
5 | 0.00136 | 0.0335 | 0.00134 | 773 | C#CCOc1cnc2c(Nc3cnc(F)c([C@@]4(C)N=C(N)S[C@@]5(COC)C[C@H]54)c3)nccc2n1 [Example 848, N-(5-((1S,5S,6S)-3-amino-1-(methoxymethyl)-5-methyl-2-thia-4-azabicyclo[4.1.0]hept-3-en-5-yl)-6-fluoro-3-pyridinyl)-2-(2-propyn-1-yloxy)pyrido[3,4-b]pyrazin-5-amine]
6 | 0.00343 | 0.0463 | 0.0017 | 1530 | COC[C@]12C[C@H]1[C@@](C)(c1cc(Nc3nccc4nc(OCc5ncco5)cnc34)cnc1F)N=C(N)S2 [Example 849, N-(5-((1S,5S,6S)-3-amino-1-(methoxymethyl)-5-methyl-2-thia-4-azabicyclo[4.1.0]hept-3-en-5-yl)-6-fluoro-3-pyridinyl)-2-(1,3-oxazol-2-ylmethoxy)pyrido[3,4-b]pyrazin-5-amine]
7 | 0.00121 | 0.00886 | 0.00207 | 1150 | [2H]C([2H])([2H])OC[C@]12C[C@H]1[C@@](C)(c1cc(NC(=O)c3ncc(OCC#C)nc3C)cnc1F)N=C(N)S2 [Example 850, N-(5-((1S,5S,6S)-3-amino-5-methyl-1-(((~2~H_3_)methyloxy)methyl)-2-thia-4-azabicyclo[4.1.0]hept-3-en-5-yl)-6-fluoro-3-pyridinyl)-3-methyl-5-(2-propyn-1-yloxy)-2-pyrazinecarboxamide]
8 | 0.000574 | 0.0184 | 0.000624 | 468 | [2H]C([2H])([2H])OC[C@]12C[C@H]1[C@@](C)(c1cc(NC(=O)c3cnc(OCC#C)cn3)cnc1F)N=C(N)S2 [Example 851, N-(5-((1S,5S,6S)-3-amino-5-methyl-1-(((~2~H_3_)methyloxy)methyl)-2-thia-4-azabicyclo[4.1.0]hept-3-en-5-yl)-6-fluoro-3-pyridinyl)-5-(2-propyn-1-yloxy)-2-pyrazinecarboxamide]
9 | 0.0127 | 0.00758 | 0.0101 | 1680 | [2H]C([2H])([2H])OC[C@]12C[C@H]1[C@@](C)(c1cc(Nc3ncnc4cc(Cl)cnc34)cnc1F)N=C(N)S2 [Example 852, N-(5-((1S,5S,6S)-3-amino-5-methyl-1-(((~2~H_3_)methyloxy)methyl)-2-thia-4-azabicyclo[4.1.0]hept-3-en-5yl)-6-fluoro-3-pyridinyl)-7-chloropyrido[3,2-d]pyrimidin-4-amine]
10 | 0.000878 | 0.0244 | 0.000961 | 791 | [2H]C([2H])([2H])OC[C@]12C[C@H]1[C@@](C)(c1cc(Nc3nccc4nc(OCC#C)cnc34)cnc1F)N=C(N)S2 [Example 853, N-(5-((1S,5S,6S)-3-amino-5-methyl-1-(((~2~H_3_)methyloxy)methyl)-2-thia-4-azabicyclo[4.1.0]hept-3-en-5-yl)-6-fluoro-3-pyridinyl)-2-(2-propyn-1-yloxy)pyrido[3,4-b]pyrazin-5-amine]
11 | 0.00144 | 0.0383 | 0.00134 | 1240 | [2H]C([2H])([2H])OC[C@]12C[C@H]1[C@@](C)(c1cc(Nc3nccc4nc(OC([2H])([2H])C#C)cnc34)cnc1F)N=C(N)S2 [Example 854, N-(5-((1S,5S,6S)-3-amino-5-methyl-1-(((~2~H_3_)methyloxy)methyl)-2-thia-4-azabicyclo[4.1.0]hept-3-en-5-yl)-6-fluoro-3-pyridinyl)-2-((1,1-~2~H_2_)-2-propyn-1-yloxy)pyrido[3,4-b]pyrazin-5-amine]
12 | 0.198 | 0.0224 | 0.294 | > 400 | COC(=O)c1cc(NC(=O)c2ccc(Cl)cn2)cc([C@@]2(C)N=C(N)S[C@@]3(C(=O)OC)C[C@H]32)c1F [Example 855, (1S,5S,6S)-methyl 3-amino-5-(5-(5-chloropicolinamido)-2-fluoro-3-(methoxycarbonyl)phenyl)-5-methyl-2-thia-4-azabicyclo[4.1.0]hept-3-ene-1-carboxylate]
13 | 0.071 | 0.657 | 0.249 | 116 | C#CCOc1cnc2c(Nc3cc(C(=O)OC)c(F)c([C@@]4(C)N=C(N)S[C@@]5(C(=O)OC)C[C@H]54)c3)nccc2n1 [Example 856, (1S,5S,6S)-methyl 3-amino-5-(2-fluoro-3-(methoxycarbonyl)-5-((2-(prop-2-yn-1-yloxy)pyrido[3,4-b]pyrazin-5-yl)amino)phenyl)-5-methyl-2-thia-4-azabicyclo[4.1.0]hept-3-ene-1-carboxylate]
14 | 0.0678 | 0.346 | 0.0156 | 2520 | C#CCOc1cnc2c(Nc3cc(C(=O)OC)c(F)c([C@@]4(C)N=C(N)S[C@@]5(CO)C[C@H]54)c3)nccc2n1 [Example 857, methyl 3-((1S,5S,6S)-3-amino-1-(hydroxymethyl)-5-methyl-2-thia-4-azabicyclo[4.1.0]hept-3-en-5-yl)-2-fluoro-5-((2-(prop-2-yn-1-yloxy)pyrido[3,4-b]pyrazin-5-yl)amino)benzoate]
15 | 0.00085 | < 0.00203 | 0.000487 | > 400 | C[C@]1(c2cc(NC(=O)c3ccc(Cl)cn3)cc(CO)c2F)N=C(N)S[C@@]2(CO)C[C@H]21 [Example 858, N-(3-((1S,5S,6S)-3-amino-1-(hydroxymethyl)-5-methyl-2-thia-4-azabicyclo[4.1.0]hept-3-en-5-yl)-4-fluoro-5-(hydroxymethyl)phenyl)-5-chloropicolinamide]
16 | 0.000799 | 0.0194 | 0.000762 | 590 | C#CCOc1cnc(C(=O)Nc2cnc(F)c([C@@]3(C)N=C(N)S[C@@]4(COC)C[C@H]43)c2)cn1 [Example 859, N-(5-((1S,5S,6S)-3-amino-1-(methoxymethyl)-5-methyl-2-thia-4-azabicyclo[4.1.0]hept-3-en-5-yl)-6-fluoro-3-pyridinyl)-5-(2-propyn-1-yloxy)-2-pyrazinecarboxamide]
17 | 0.00276 | 0.0286 | 0.00853 | 1010 | Cc1nc(OCc2ncco2)cnc1C(=O)Nc1cc(F)c(F)c([C@@]2(C)N=C(N)S[C@@]3(C(F)F)C[C@@H]23)c1 [Example 860, N-(3-((1S,5S,6S)-3-amino-1-(difluoromethyl)-5-methyl-2-thia-4-azabicyclo[4.1.0]hept-3-en-5-yl)-4,5-difluorophenyl)-3-methyl-5-(1,3-oxazol-2-ylmethoxy)-2-pyrazinecarboxamide]
18 | 0.000889 | 0.0176 | 0.00754 | 146 | C#CCOc1cnc(C(=O)Nc2cc(F)c(F)c([C@@]3(C)N=C(N)S[C@@]4(C(F)F)C[C@@H]34)c2)c(C)n1 [Example 861, N-(3-((1S,5S,6S)-3-amino-1-(difluoromethyl)-5-methyl-2-thia-4-azabicyclo[4.1.0]hept-3-en-5-yl)-4,5-difluorophenyl)-3-methyl-5-(2-propyn-1-yloxy)-2-pyrazinecarboxamide]
